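A five-concentration, 48-hour dose response in 96-well plates underlies each endpoint, interpolated linearly between surrounding concentrations. GI50 = concentration required for 50% inhibition of growth. The concentration for full growth arrest is given as TGI.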
Key:
Test in all cases: NCI tumour cell line growth inhibition, 48 h
SN12C renal = system: SN12C renal
CCRF-CEM leukemia = system: CCRF-CEM leukemia
MOLT-4 leukemia = system: MOLT-4 leukemia
SF-295 CNS = system: SF-295 CNS
HT29 colon = system: HT29 colon
SF-539 CNS = system: SF-539 CNS
MDA-MB-435 = system: MDA-MB-435
T-47D breast = system: T-47D breast
RPMI-8226 leukemia = system: RPMI-8226 leukemia
NCI-H522 lung = system: NCI-H522 lung
DU-145 prostate = system: DU-145 prostate
A498 renal = system: A498 renal
A549 NSCLC = system: A549 NSCLC
UACC-62 melanoma = system: UACC-62 melanoma
NCI-H226 lung = system: NCI-H226 lung
OVCAR-8 ovarian = system: OVCAR-8 ovarian
M14 melanoma = system: M14 melanoma
SK-MEL-5 melanoma = system: SK-MEL-5 melanoma
UACC-257 melanoma = system: UACC-257 melanoma
SF-268 CNS = system: SF-268 CNS
SK-MEL-2 melanoma = system: SK-MEL-2 melanoma
NCI-H23 lung = system: NCI-H23 lung
OVCAR-4 ovarian = system: OVCAR-4 ovarian
786-0 renal = system: 786-0 renal
IGROV1 ovarian = system: IGROV1 ovarian
HL-60(TB) leukemia = system: HL-60(TB) leukemia
COLO 205 colon = system: COLO 205 colon
HOP-62 NSCLC = system: HOP-62 NSCLC
HCT-15 colon = system: HCT-15 colon
UO-31 renal = system: UO-31 renal
SK-MEL-28 melanoma = system: SK-MEL-28 melanoma
OVCAR-5 ovarian = system: OVCAR-5 ovarian
BT-549 breast = system: BT-549 breast
MCF7 breast = system: MCF7 breast
TK-10 renal = system: TK-10 renal
SW-620 colon = system: SW-620 colon
MDA-MB-231 breast = system: MDA-MB-231 breast
PC-3 prostate = system: PC-3 prostate
KM12 colon = system: KM12 colon
HCC-2998 colon = system: HCC-2998 colon
NCI/ADR-RES ovarian = system: NCI/ADR-RES ovarian
NCI-H460 lung = system: NCI-H460 lung
ACHN renal = system: ACHN renal
HCT-116 colon = system: HCT-116 colon
SNB-75 CNS = system: SNB-75 CNS
HS 578T breast = system: HS 578T breast
SNB-19 CNS = system: SNB-19 CNS
LOX IMVI melanoma = system: LOX IMVI melanoma
U251 CNS = system: U251 CNS
RXF 393 renal = system: RXF 393 renal
MALME-3M melanoma = system: MALME-3M melanoma
SK-OV-3 ovarian = system: SK-OV-3 ovarian
HOP-92 NSCLC = system: HOP-92 NSCLC
OVCAR-3 ovarian = system: OVCAR-3 ovarian

`COc1ccc(OC)c(Nc2nc(-c3c(C)nc4sccn34)cs2)c1` was tested, and the GI50 (SN12C renal) was greater than 100 µM, the TGI (SN12C renal) was greater than 100 µM and the GI50 (CCRF-CEM leukemia) was greater than 100 µM. For the same molecule, the TGI (CCRF-CEM leukemia) was greater than 100 µM, the GI50 (MOLT-4 leukemia) was greater than 100 µM and the TGI (MOLT-4 leukemia) was greater than 100 µM. For the same molecule, the GI50 (SF-295 CNS) was 41.4 µM, the TGI (SF-295 CNS) was greater than 100 µM and the GI50 (HT29 colon) was greater than 100 µM. It also gave a TGI (HT29 colon) greater than 100 µM, a GI50 (SF-539 CNS) of 48.8 µM and a TGI (SF-539 CNS) greater than 100 µM. For the same molecule, the GI50 (MDA-MB-435) was greater than 100 µM, the TGI (MDA-MB-435) was greater than 100 µM and the GI50 (T-47D breast) was 5.43 µM. The TGI (T-47D breast) was greater than 100 µM, the GI50 (RPMI-8226 leukemia) was 8.91 µM and the TGI (RPMI-8226 leukemia) was greater than 100 µM. It also gave a GI50 (NCI-H522 lung) of 52.6 µM, a TGI (NCI-H522 lung) greater than 100 µM and a GI50 (DU-145 prostate) greater than 100 µM. The TGI (DU-145 prostate) was greater than 100 µM, the GI50 (A498 renal) was 1.63 µM and the TGI (A498 renal) was greater than 100 µM. The GI50 (A549 NSCLC) was greater than 100 µM, the TGI (A549 NSCLC) was greater than 100 µM and the GI50 (UACC-62 melanoma) was 51.8 µM. It also gave a TGI (UACC-62 melanoma) greater than 100 µM, a GI50 (NCI-H226 lung) of 19.2 µM and a TGI (NCI-H226 lung) greater than 100 µM. The GI50 (OVCAR-8 ovarian) was 7.22 µM, the TGI (OVCAR-8 ovarian) was greater than 100 µM and the GI50 (M14 melanoma) was greater than 100 µM. The TGI (M14 melanoma) was greater than 100 µM, the GI50 (SK-MEL-5 melanoma) was 34.9 µM and the TGI (SK-MEL-5 melanoma) was greater than 100 µM. For the same molecule, the GI50 (UACC-257 melanoma) was greater than 100 µM, the TGI (UACC-257 melanoma) was greater than 100 µM and the GI50 (SF-268 CNS) was 29.7 µM. The TGI (SF-268 CNS) was greater than 100 µM, the GI50 (SK-MEL-2 melanoma) was greater than 100 µM and the TGI (SK-MEL-2 melanoma) was greater than 100 µM. It also gave a GI50 (NCI-H23 lung) of 51.1 µM, a TGI (NCI-H23 lung) greater than 100 µM and a GI50 (OVCAR-4 ovarian) of 14.2 µM. It also gave a TGI (OVCAR-4 ovarian) greater than 100 µM, a GI50 (786-0 renal) of 32.3 µM and a TGI (786-0 renal) greater than 100 µM. It also gave a GI50 (IGROV1 ovarian) of 23.2 µM, a TGI (IGROV1 ovarian) greater than 100 µM and a GI50 (HL-60(TB) leukemia) greater than 100 µM. It also gave a TGI (HL-60(TB) leukemia) greater than 100 µM, a GI50 (COLO 205 colon) greater than 100 µM and a TGI (COLO 205 colon) greater than 100 µM. For the same molecule, the GI50 (HOP-62 NSCLC) was 8.46 µM, the TGI (HOP-62 NSCLC) was 63.4 µM and the GI50 (HCT-15 colon) was greater than 100 µM. It also gave a TGI (HCT-15 colon) greater than 100 µM, a GI50 (UO-31 renal) of 29 µM and a TGI (UO-31 renal) greater than 100 µM. The GI50 (SK-MEL-28 melanoma) was 58.9 µM, the TGI (SK-MEL-28 melanoma) was greater than 100 µM and the GI50 (OVCAR-5 ovarian) was greater than 100 µM. For the same molecule, the TGI (OVCAR-5 ovarian) was greater than 100 µM, the GI50 (BT-549 breast) was 11 µM and the TGI (BT-549 breast) was greater than 100 µM. The GI50 (MCF7 breast) was 1.95 µM, the TGI (MCF7 breast) was greater than 100 µM and the GI50 (TK-10 renal) was 87.5 µM. It also gave a TGI (TK-10 renal) greater than 100 µM, a GI50 (SW-620 colon) greater than 100 µM and a TGI (SW-620 colon) greater than 100 µM. It also gave a GI50 (MDA-MB-231 breast) greater than 100 µM, a TGI (MDA-MB-231 breast) greater than 100 µM and a GI50 (PC-3 prostate) of 18.1 µM. It also gave a TGI (PC-3 prostate) greater than 100 µM, a GI50 (KM12 colon) greater than 100 µM and a TGI (KM12 colon) greater than 100 µM. It also gave a GI50 (HCC-2998 colon) greater than 100 µM, a TGI (HCC-2998 colon) greater than 100 µM and a GI50 (NCI/ADR-RES ovarian) of 15 µM. The TGI (NCI/ADR-RES ovarian) was greater than 100 µM, the GI50 (NCI-H460 lung) was greater than 100 µM and the TGI (NCI-H460 lung) was greater than 100 µM. For the same molecule, the GI50 (ACHN renal) was 38.6 µM, the TGI (ACHN renal) was greater than 100 µM and the GI50 (HCT-116 colon) was greater than 100 µM. For the same molecule, the TGI (HCT-116 colon) was greater than 100 µM, the GI50 (SNB-75 CNS) was 3.38 µM and the TGI (SNB-75 CNS) was 33.7 µM. It also gave a GI50 (HS 578T breast) of 5.3 µM, a TGI (HS 578T breast) greater than 100 µM and a GI50 (SNB-19 CNS) of 41.4 µM. The TGI (SNB-19 CNS) was greater than 100 µM, the GI50 (LOX IMVI melanoma) was greater than 100 µM and the TGI (LOX IMVI melanoma) was greater than 100 µM. The GI50 (U251 CNS) was greater than 100 µM, the TGI (U251 CNS) was greater than 100 µM and the GI50 (RXF 393 renal) was 36.3 µM. It also gave a TGI (RXF 393 renal) greater than 100 µM, a GI50 (MALME-3M melanoma) greater than 100 µM and a TGI (MALME-3M melanoma) greater than 100 µM. For the same molecule, the GI50 (SK-OV-3 ovarian) was 24.6 µM, the TGI (SK-OV-3 ovarian) was greater than 100 µM and the GI50 (HOP-92 NSCLC) was 8.63 µM. It also gave a TGI (HOP-92 NSCLC) of 98.4 µM, a GI50 (OVCAR-3 ovarian) of 92.7 µM and a TGI (OVCAR-3 ovarian) greater than 100 µM.

From PubChem BioAssay (NCI)
